# Publication PMC8482806, “A Novel Blood-Brain Barrier-Permeable Chemotherapeutic Agent for the Treatment of Glioblastoma” (Cureus, 2021)
# Experiment: [14C]-QBS10072S distribution by quantitative whole-body autoradiography in mice with intracranial LN229 tumors
# Type: in vivo, mouse
# Settings: 5 mg/kg IV
# Method: Athymic mice with intracranial implanted LN229 cells received a single IV dose of 5 mg/kg and 200 μCi/kg [14C]-QBS10072S into the tail vein using the formulation described above. Animals (one per time point) were sacrificed one, eight, and 24 hours post-dose, and frozen in a hexane/solid carbon dioxide bath for at least 10 minutes. The carcasses were processed as described for quantitative whole-body autoradiography. Briefly, sagittal sections (~ 40 μm thick) were cut using a microtome, mounted, and exposed to a [14C]-sensitive phosphor imaging plate for four days. The images were scanned and quantitated by image densitometry using MCID image analysis software. The concentrations of radioactivity were expressed as the μg equivalents of test article per gram sample (μg equiv/g). The upper and lower limits of quantification were 550 and 0.008 μg equiv/g, respectively (QPS, Newark, DE).
structure (smiles),measurement,setting,value
"Cc1ccc(N(CCCl)C[14CH2]Cl)cc1C[C@H](N)CC(=O)O.Cl.Cl [[14C]-QBS10072S, [chloroethyl-2-14C]-QBS10072S×2HCl]",Tissue Concentration,"Adipose (brown), 1 h",2.528 µg equiv/g tissue
same,Tissue Concentration,"Adipose (brown), 8 h",0.440 µg equiv/g tissue
same,Tissue Concentration,"Adipose (brown), 24 h",0.577 µg equiv/g tissue
same,Tissue Concentration,"Adipose (white), 1 h",0.409 µg equiv/g tissue
same,Tissue Concentration,"Adipose (white), 8 h",0.348 µg equiv/g tissue
same,Tissue Concentration,"Adipose (white), 24 h",0.381 µg equiv/g tissue
same,Tissue Concentration,"Adrenal Gland, 1 h",2.700 µg equiv/g tissue
same,Tissue Concentration,"Adrenal Gland, 8 h",0.638 µg equiv/g tissue
same,Tissue Concentration,"Adrenal Gland, 24 h",0.533 µg equiv/g tissue
same,Tissue Concentration,"Blood (cardiac), 1 h",2.204 µg equiv/g tissue
same,Tissue Concentration,"Blood (cardiac), 8 h",0.581 µg equiv/g tissue
same,Tissue Concentration,"Blood (cardiac), 24 h",0.734 µg equiv/g tissue
same,Tissue Concentration,"Bone, 1 h",0.350 µg equiv/g tissue
same,Tissue Concentration,"Bone, 8 h",0.165 µg equiv/g tissue
same,Tissue Concentration,"Bone, 24 h",0.065 µg equiv/g tissue
same,Tissue Concentration,"Brain (cerebellum), 1 h",0.395 µg equiv/g tissue
same,Tissue Concentration,"Brain (cerebellum), 8 h",0.105 µg equiv/g tissue
same,Tissue Concentration,"Brain (cerebellum), 24 h",0.120 µg equiv/g tissue
same,Tissue Concentration,"Brain (cerebrum), 1 h",0.469 µg equiv/g tissue
same,Tissue Concentration,"Brain (cerebrum), 8 h",0.109 µg equiv/g tissue
same,Tissue Concentration,"Brain (cerebrum), 24 h",0.101 µg equiv/g tissue
same,Tissue Concentration,"Brain (medulla), 1 h",0.403 µg equiv/g tissue
same,Tissue Concentration,"Brain (medulla), 8 h",0.081 µg equiv/g tissue
same,Tissue Concentration,"Brain (medulla), 24 h",0.118 µg equiv/g tissue
same,Tissue Concentration,"Cecum (contents), 1 h",3.895 µg equiv/g tissue
same,Tissue Concentration,"Cecum (contents), 8 h",24.266 µg equiv/g tissue
same,Tissue Concentration,"Cecum (contents), 24 h",9.502 µg equiv/g tissue
same,Tissue Concentration,"Cecum, 1 h",2.419 µg equiv/g tissue
same,Tissue Concentration,"Cecum, 8 h",0.924 µg equiv/g tissue
same,Tissue Concentration,"Cecum, 24 h",0.655 µg equiv/g tissue
same,Tissue Concentration,"Choroid Plexus, 1 h",0.815 µg equiv/g tissue
same,Tissue Concentration,"Choroid Plexus, 8 h",0.159 µg equiv/g tissue
same,Tissue Concentration,"Choroid Plexus, 24 h",0.186 µg equiv/g tissue
same,Tissue Concentration,"Esophagus, 1 h",1.211 µg equiv/g tissue
same,Tissue Concentration,"Esophagus, 8 h",0.442 µg equiv/g tissue
same,Tissue Concentration,"Esophagus, 24 h",0.565 µg equiv/g tissue
same,Tissue Concentration,"Harderian Gland, 1 h",3.371 µg equiv/g tissue
same,Tissue Concentration,"Harderian Gland, 8 h",0.468 µg equiv/g tissue
same,Tissue Concentration,"Harderian Gland, 24 h",0.329 µg equiv/g tissue
same,Tissue Concentration,"Heart, 1 h",2.165 µg equiv/g tissue
same,Tissue Concentration,"Heart, 8 h",0.489 µg equiv/g tissue
same,Tissue Concentration,"Heart, 24 h",0.480 µg equiv/g tissue
same,Tissue Concentration,"Kidney (outer medulla), 1 h",6.281 µg equiv/g tissue
same,Tissue Concentration,"Kidney (outer medulla), 8 h",1.372 µg equiv/g tissue
same,Tissue Concentration,"Kidney (outer medulla), 24 h",1.164 µg equiv/g tissue
same,Tissue Concentration,"Large Intestine, 1 h",1.437 µg equiv/g tissue
same,Tissue Concentration,"Liver, 1 h",5.522 µg equiv/g tissue
same,Tissue Concentration,"Liver, 8 h",0.674 µg equiv/g tissue
same,Tissue Concentration,"Liver, 24 h",0.598 µg equiv/g tissue
same,Tissue Concentration,"Lung, 1 h",2.943 µg equiv/g tissue
same,Tissue Concentration,"Lung, 8 h",0.684 µg equiv/g tissue
same,Tissue Concentration,"Lung, 24 h",0.620 µg equiv/g tissue
same,Tissue Concentration,"Mammary Gland Region, 1 h",0.485 µg equiv/g tissue
same,Tissue Concentration,"Mammary Gland Region, 8 h",0.173 µg equiv/g tissue
same,Tissue Concentration,"Mammary Gland Region, 24 h",0.365 µg equiv/g tissue
same,Tissue Concentration,"Ovary, 1 h",2.564 µg equiv/g tissue
same,Tissue Concentration,"Ovary, 8 h",0.563 µg equiv/g tissue
same,Tissue Concentration,"Ovary, 24 h",0.585 µg equiv/g tissue
same,Tissue Concentration,"Pancreas, 1 h",3.270 µg equiv/g tissue
same,Tissue Concentration,"Pancreas, 8 h",0.546 µg equiv/g tissue
same,Tissue Concentration,"Pancreas, 24 h",0.442 µg equiv/g tissue
same,Tissue Concentration,"Pituitary Gland, 1 h",1.689 µg equiv/g tissue
same,Tissue Concentration,"Pituitary Gland, 8 h",0.468 µg equiv/g tissue
same,Tissue Concentration,"Pituitary Gland, 24 h",0.128 µg equiv/g tissue
same,Tissue Concentration,"Salivary Gland, 1 h",2.429 µg equiv/g tissue
same,Tissue Concentration,"Salivary Gland, 8 h",0.428 µg equiv/g tissue
same,Tissue Concentration,"Salivary Gland, 24 h",0.368 µg equiv/g tissue
same,Tissue Concentration,"Skeletal Muscle, 1 h",1.123 µg equiv/g tissue
same,Tissue Concentration,"Skeletal Muscle, 8 h",0.602 µg equiv/g tissue
same,Tissue Concentration,"Skeletal Muscle, 24 h",0.627 µg equiv/g tissue
same,Tissue Concentration,"Skin, 1 h",1.496 µg equiv/g tissue
same,Tissue Concentration,"Skin, 8 h",0.479 µg equiv/g tissue
same,Tissue Concentration,"Skin, 24 h",0.425 µg equiv/g tissue
same,Tissue Concentration,"Spinal Cord, 1 h",0.480 µg equiv/g tissue
same,Tissue Concentration,"Spinal Cord, 8 h",0.100 µg equiv/g tissue
same,Tissue Concentration,"Spinal Cord, 24 h",0.120 µg equiv/g tissue
same,Tissue Concentration,"Thyroid, 1 h",1.802 µg equiv/g tissue
same,Tissue Concentration,"Thyroid, 8 h",0.374 µg equiv/g tissue
same,Tissue Concentration,"Thyroid, 24 h",0.653 µg equiv/g tissue
same,Tissue Concentration,"Tumor High, 1 h",2.836 µg equiv/g tissue
same,Tissue Concentration,"Tumor High, 8 h",0.575 µg equiv/g tissue
same,Tissue Concentration,"Tumor High, 24 h",0.479 µg equiv/g tissue
same,Tissue Concentration,"Tumor Low, 1 h",1.245 µg equiv/g tissue
same,Tissue Concentration,"Tumor Low, 8 h",0.162 µg equiv/g tissue
same,Tissue Concentration,"Tumor Low, 24 h",0.240 µg equiv/g tissue
same,Tissue Concentration,"Tumor, 1 h",1.961 µg equiv/g tissue
same,Tissue Concentration,"Tumor, 8 h",0.427 µg equiv/g tissue
same,Tissue Concentration,"Tumor, 24 h",0.275 µg equiv/g tissue
same,Tissue Concentration,"Urinary Bladder (contents), 1 h",206.798 µg equiv/g tissue
same,Tissue Concentration,"Urinary Bladder (contents), 8 h",1.716 µg equiv/g tissue
same,Tissue Concentration,"Urinary Bladder (contents), 24 h",0.811 µg equiv/g tissue
same,Tissue Concentration,"Urinary Bladder, 1 h",3.914 µg equiv/g tissue
same,Tissue Concentration,"Urinary Bladder, 8 h",0.821 µg equiv/g tissue
same,Tissue Concentration,"Urinary Bladder, 24 h",0.485 µg equiv/g tissue
same,Tissue Concentration,"Uterus, 1 h",1.849 µg equiv/g tissue
same,Tissue Concentration,"Uterus, 8 h",0.563 µg equiv/g tissue
same,Tissue Concentration,"Uterus, 24 h",0.511 µg equiv/g tissue
same,Tissue Concentration,"Vagina, 1 h",1.337 µg equiv/g tissue
same,Tissue Concentration,"Vagina, 8 h",0.640 µg equiv/g tissue
same,Tissue Concentration,"Vagina, 24 h",0.629 µg equiv/g tissue
